Results published in the supplement of paper PMC5752671.

How the values were obtained:
Test in all cases: area under dose-response curve (cell viability) (AUC (arbitrary, % viability x log concentration)); higher = less sensitive (more viable)
Conditions in all cases: 4 days
KASUMI1 = system: KASUMI1
Procedure, shortened: (§1)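 The value given is the area under a fitted sigmoid dose-response curve. That sigmoid had four parameters and was fitted to duplicate-averaged data from fourteen leukemia cell lines grown on extracellular-matrix-coated 384-well plates. One day after plating, drugs were robotically dosed in duplicate at eight concentrations spanning 4–5 logs between 10^–12 and 10^–4 M, chosen per drug, and viability was read with CellTiter-Glo 4 days later.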

PL-21 = system: PL-21
Procedure, shortened: as §1

OCI-AML3 = system: OCI-AML3
Procedure, shortened: as §1

KG1 = system: KG1
Procedure, shortened: as §1

U937 = system: U937
Procedure, shortened: as §1

NB4 = system: NB4
Procedure, shortened: as §1

SKM1 = system: SKM1
Procedure, shortened: as §1

MOLM/16 = system: MOLM/16
Procedure, shortened: as §1

EOL-1 = system: EOL-1
Procedure, shortened: as §1

MV4.11 = system: MV4.11
Procedure, shortened: as §1

Compound | area under dose-response curve (KASUMI1) | area under dose-response curve (PL-21) | area under dose-response curve (OCI-AML3) | area under dose-response curve (KG1) | area under dose-response curve (U937) | area under dose-response curve (NB4) | area under dose-response curve (SKM1) | area under dose-response curve (MOLM/16) | area under dose-response curve (EOL-1) | area under dose-response curve (MV4.11)
CN1CCN(CCOc2cc(OC3CCOCC3)c3c(Nc4c(Cl)ccc5c4OCO5)ncnc3c2)CC1 [AZD0530] | 772 | 641 | 705 | 749 | 663 | 614 | 736 | 666 | 565 | 617
COc1cc2c(Oc3ccc4[nH]c(C)cc4c3F)ncnc2cc1OCCCN1CCCC1 [AZD2171] | 673 | 646 | 687 | 307 | 724 | 614 | 640 | 686 | 263 | 656
NC(=O)Nc1cc(-c2cccc(F)c2)sc1C(=O)N[C@H]1CCCNC1 [AZD7762] | 408 | 357 | 415 | 405 | 341 | 378 | 271 | 387 | 6.62 | 29.7
Cc1cc(C(=O)NOCCO)c(Nc2ccc(I)cc2F)n(C)c1=O [AZD8330] | 375 | 205 | 87.3 | 371 | 465 | 348 | 44.2 | 341 | 169 | 317
Cn1cnc2c(F)c(Nc3ccc(Br)cc3Cl)c(C(=O)NOCCO)cc21 [AZD-6244] | 528 | 439 | 384 | 578 | 657 | 519 | 358 | 501 | 509 | 565
COc1ccc(-c2ccc3c(N4CCOC[C@@H]4C)nc(N4CCOC[C@@H]4C)nc3n2)cc1CO [AZD-8055] | 440 | 390 | 405 | 369 | 310 | 526 | 413 | 299 | 296 | 338
CNC(=O)c1ccccc1Sc1ccc2c(/C=C/c3ccccn3)n[nH]c2c1 [Axitinib] | 538 | 582 | 641 | 479 | 635 | 620 | 679 | 577 | 325 | 573
Nc1ncn([C@@H]2O[C@H](CO)[C@@H](O)[C@H]2O)c(=O)n1 [Azacitidine] | 603 | 593 | 619 | 666 | 623 | 493 | 564 | 506 | 481 | 560
Cc1ccc(S(=O)(=O)/C=C/C#N)cc1 [BAY 11-7082] | 466 | 500 | 461 | 495 | 499 | 534 | 467 | 520 | 527 | 494
CC(C)(C)c1ccc(S(=O)(=O)/C=C/C#N)cc1 [BAY 11-7085] | 445 | 506 | 444 | 487 | 500 | 518 | 465 | 476 | 480 | 518
Cn1c(=O)n(-c2ccc(C(C)(C)C#N)cc2)c2c3cc(-c4cnc5ccccc5c4)ccc3ncc21 [BEZ-235] | 447 | 444 | 459 | 483 | 374 | 489 | 451 | 362 | 373 | 436
COc1ccc(-c2ccc3ncc4c(c3c2)n(-c2ccc(N3CCNCC3)c(C(F)(F)F)c2)c(=O)n4C)cn1 [BGT-226] | 366 | 367 | 412 | 354 | 325 | 448 | 369 | 316 | 344 | 399
CC[C@@H]1C(=O)N(C)c2cnc(Nc3ccc(C(=O)NC4CCN(C)CC4)cc3OC)nc2N1C1CCCC1 [BI-2536] | 118 | 7.31 | 6.18 | 84.8 | 5.36 | 18.2 | 110 | 90 | 10.5 | 4.22
COC(=O)c1ccc2c(c1)NC(=O)/C2=C(\Nc1ccc(N(C)C(=O)CN2CCN(C)CC2)cc1)c1ccccc1 [BIBF1120] | 571 | 626 | 685 | 636 | 698 | 658 | 677 | 653 | 325 | 489
CN(C)C/C=C/C(=O)Nc1cc2c(Nc3ccc(F)c(Cl)c3)ncnc2cc1O[C@H]1CCOC1 [BIBW 2992] | 641 | 573 | 594 | 623 | 625 | 598 | 561 | 464 | 477 | 535
O=C(/C=C/c1cccc(S(=O)(=O)Nc2ccccc2)c1)NO [Belinostat] | 524 | 419 | 446 | 399 | 388 | 445 | 469 | 329 | 324 | 348
C=C(c1ccc(C(=O)O)cc1)c1cc2c(cc1C)C(C)(C)CCC2(C)C [Bexarotene] | 672 | 589 | 550 | 662 | 608 | 644 | 469 | 671 | 341 | 339
